According to patent US7169753B2, “Chlorophyll and bacteriochlorophyll esters, their preparation and pharmaceutical compositions comprising them” (Yeda Research and Development Co. Ltd., priority 1999, dated 2007):

System: M2R melanoma cells
Assay: Photodynamic activity in monolayer cell culture (phototoxicity to melanoma cells)
Assay type: cell-based
Conditions: mouse M2R melanoma cells, 4 hrs dark incubation, irradiation 600–1300 nm; for phototoxicity to M2R melanoma cells (result in words): viability by [3H]-thymidine incorporation, formed aggregates in the liposomes
Description: Liposome Preparation L-α-Dipalmitoylphosphatidylcholine (DPPC) liposomes as carrier system for pigments insoluble in water were prepared according to Toledano, 1998 and to Cuomo et al. 1990. […] (≅130 μg) of the photosensitizer and 5 mg DPPC were dissolved in 400 μl chloroform. Onto this were layered 250 μl H2O and 250 μl phosphate buffer (pH=7,2; 1,5 mM KH2PO4; 7,6 mM Na2HPO4; 0,15 M NaCl). The chloroform was removed within 5 min with a rapid stream of argon, while the mixture was sonicated and maintained at 45° C. Sonication was continued for another 20 min and the liposomes loaded with pigment were recovered in the supernatant after centrifugation (16 000×g, 10 min). The liposome concentration was determined photometrically at 750 nm (according to Grossweiner and Grossweiner, 1982). Photodynamic Activity in Monolayer Cell Culture M2R melanoma cells (mice) were cultivated as monolayers in 96-well microtiter-plates in DMEM (Dulbecco's modified Eagle's medium)/F12 1/1 (v/v) at 37° C. in a moist atmosphere containing 8% CO2. The medium (pH 7.4) was supplemented with HEPES buffer (25 mM), fetal-bovine-serum (FBS) (10%), glutamine (2 mM), penicillin (0.06 mg/ml) and streptomycin (0.1 mg/ml). Within 24 hrs, the cell density increased from 1×10^4 to 2×10^4 cell/100 μl. Increasing amounts of the liposome preparation containing the BChl-derivative were added to the cells. (Pd-BPheid-ser or Pd-BPheid-Nglc were added as ethanolic solution (10^−4 M) such that the maximum concentration of ethanol was <1%). The cells were first kept in the dark for 4 hrs, washed with 100 μl of the medium, treated with 100 μl of fresh medium, and then irradiated from below through the bottom of the plates with a russian BS LS3-PDT lamp, fitted with a filter (600–1300 nm). A light-dose of 10 mW x s x cm^−2 was provided during an irradiation time of […]. After an additional 24 h in the dark at 37° C., cell viability was determined by microscopic inspection (cell size and shape) and via [^3H]-thymidine incorporation into the DNA (Chen et al. 1988). […]

Substance	LD90 (phototoxicity) (viability by [3H]-thymidine incorporation after 24 h, sensitizers in DPPC liposomes (Pd-BPheid-ser as ethanolic solution)) [µM]	phototoxicity to M2R melanoma cells (result in words)
13^3-tert-butyl-benzyl-Pd-bacteriopheophorbide-a-17^3-methyl ester [tbb-Pd-Bpheid-me]	1.1	
13^3-tert.-butyl-benzyl-Pd-bacteriopheophorbide-a-17^3-tert-butyl-benzyl ester [tbb-Pd-BPheid-tbb]		ineffective
Pd-bacteriopheophorbide a-17^3-N-glucosamide [Pd-BPheid-Nglc]		ineffective
